From patent US20220088016A1, “CANCER TREATMENT USING MULTI-TARGETED KINASE INHIBITOR IN COMBINATION OF PROTEIN KINASE BIOMARKERS” (ZHEJIANG CROWNMAB BIOTECH CO. LTD., priority 2019, published 2022)

Tests used:
ADCK4 = ADCK4 (Homo sapiens, UniProt Q96D53); test: Kinase profiling; assay type: binding; conditions: read-out: % Ctrl @ 1000 nM
BRAF = BRAF (Homo sapiens, UniProt P15056); test: Kinase profiling; assay type: binding; conditions: read-out: % Ctrl @ 1000 nM
CAMK2G = CAMK2G (Homo sapiens, UniProt Q13555); test: Kinase profiling; assay type: binding; conditions: read-out: % Ctrl @ 1000 nM
CDK9 = CDK9 (Homo sapiens, UniProt P50750); test: Kinase profiling; assay type: binding; conditions: read-out: % Ctrl @ 1000 nM
CDKL5 = CDKL5 (Homo sapiens, UniProt O76039); test: Kinase profiling; assay type: binding; conditions: read-out: % Ctrl @ 1000 nM
Sequence of CDKL5 (O76039 whole entry): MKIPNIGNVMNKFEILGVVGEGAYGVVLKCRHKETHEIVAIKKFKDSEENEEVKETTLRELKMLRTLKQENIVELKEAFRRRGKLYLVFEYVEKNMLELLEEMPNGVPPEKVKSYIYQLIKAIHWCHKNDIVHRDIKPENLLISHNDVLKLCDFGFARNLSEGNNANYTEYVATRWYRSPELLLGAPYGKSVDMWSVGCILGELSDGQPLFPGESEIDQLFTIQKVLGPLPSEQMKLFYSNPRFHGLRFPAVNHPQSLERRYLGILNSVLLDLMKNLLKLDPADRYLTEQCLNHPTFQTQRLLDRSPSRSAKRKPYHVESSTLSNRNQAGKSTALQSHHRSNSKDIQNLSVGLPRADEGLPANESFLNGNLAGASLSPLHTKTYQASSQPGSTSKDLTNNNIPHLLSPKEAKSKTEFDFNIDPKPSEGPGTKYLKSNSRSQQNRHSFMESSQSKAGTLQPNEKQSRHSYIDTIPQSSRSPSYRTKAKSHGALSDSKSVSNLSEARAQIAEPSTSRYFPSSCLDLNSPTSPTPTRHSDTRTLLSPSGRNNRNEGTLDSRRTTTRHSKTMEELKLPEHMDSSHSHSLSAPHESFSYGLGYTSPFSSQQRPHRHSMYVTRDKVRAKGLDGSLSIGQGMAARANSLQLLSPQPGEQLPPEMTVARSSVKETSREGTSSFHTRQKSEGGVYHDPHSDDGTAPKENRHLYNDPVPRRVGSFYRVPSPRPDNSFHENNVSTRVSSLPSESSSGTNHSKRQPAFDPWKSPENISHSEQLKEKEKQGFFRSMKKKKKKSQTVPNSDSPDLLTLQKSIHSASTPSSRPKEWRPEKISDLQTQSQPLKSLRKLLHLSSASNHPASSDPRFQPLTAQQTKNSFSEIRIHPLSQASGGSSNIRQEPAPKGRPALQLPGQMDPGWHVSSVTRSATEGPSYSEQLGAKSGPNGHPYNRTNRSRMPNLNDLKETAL

CSNK1G3 = CSNK1G3 (Homo sapiens, UniProt Q9Y6M4); test: Kinase profiling; assay type: binding; conditions: read-out: % Ctrl @ 1000 nM
DCAMKL1 = DCAMKL1 (Homo sapiens, UniProt O15075); test: Kinase profiling; assay type: binding; conditions: read-out: % Ctrl @ 1000 nM
DYRK1B = DYRK1B (Homo sapiens, UniProt Q9Y463); test: Kinase profiling; assay type: binding; conditions: read-out: % Ctrl @ 1000 nM
Sequence of DYRK1B (Q9Y463 whole entry): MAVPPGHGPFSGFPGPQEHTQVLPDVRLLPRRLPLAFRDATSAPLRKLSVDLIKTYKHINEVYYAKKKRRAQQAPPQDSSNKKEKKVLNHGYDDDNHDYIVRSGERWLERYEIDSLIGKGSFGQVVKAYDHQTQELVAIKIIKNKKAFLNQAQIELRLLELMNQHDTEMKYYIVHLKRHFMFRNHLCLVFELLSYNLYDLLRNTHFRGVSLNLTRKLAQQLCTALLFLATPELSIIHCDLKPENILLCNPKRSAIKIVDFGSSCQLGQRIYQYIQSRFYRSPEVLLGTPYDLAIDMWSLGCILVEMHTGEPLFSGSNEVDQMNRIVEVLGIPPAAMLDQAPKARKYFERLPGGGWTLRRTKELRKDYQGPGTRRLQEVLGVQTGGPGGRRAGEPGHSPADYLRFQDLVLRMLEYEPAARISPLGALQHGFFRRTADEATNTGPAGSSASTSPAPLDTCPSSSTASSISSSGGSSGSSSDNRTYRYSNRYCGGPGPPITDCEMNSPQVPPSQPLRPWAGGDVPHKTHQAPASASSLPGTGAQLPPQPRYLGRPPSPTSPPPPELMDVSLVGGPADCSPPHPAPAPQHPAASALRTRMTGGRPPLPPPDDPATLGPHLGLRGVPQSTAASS

EGFR (S752-I759del) = EGFR (S752-I759del) (Homo sapiens, UniProt P00533, DEL752-759); test: Kinase profiling; assay type: binding; conditions: read-out: % Ctrl @ 1000 nM
EPHA8 = EPHA8 (Homo sapiens, UniProt P29322); test: Kinase profiling; assay type: binding; conditions: read-out: % Ctrl @ 1000 nM
ERK3 = ERK3 (Homo sapiens, UniProt Q16659); test: Kinase profiling; assay type: binding; conditions: read-out: % Ctrl @ 1000 nM
FLT3 (ITD) = test: Kinase profiling; assay type: binding
FLT3 (ITD, F691L) = test: Kinase profiling; assay type: binding
FLT3 (K663Q) = FLT3 (K663Q) (Homo sapiens, UniProt P36888, K663Q); test: Kinase profiling; assay type: binding; conditions: read-out: % Ctrl @ 1000 nM
IGF1R = IGF1R (Homo sapiens, UniProt P08069); test: Kinase profiling; assay type: binding; conditions: read-out: % Ctrl @ 1000 nM
Sequence of IGF1R (P08069 31-1367): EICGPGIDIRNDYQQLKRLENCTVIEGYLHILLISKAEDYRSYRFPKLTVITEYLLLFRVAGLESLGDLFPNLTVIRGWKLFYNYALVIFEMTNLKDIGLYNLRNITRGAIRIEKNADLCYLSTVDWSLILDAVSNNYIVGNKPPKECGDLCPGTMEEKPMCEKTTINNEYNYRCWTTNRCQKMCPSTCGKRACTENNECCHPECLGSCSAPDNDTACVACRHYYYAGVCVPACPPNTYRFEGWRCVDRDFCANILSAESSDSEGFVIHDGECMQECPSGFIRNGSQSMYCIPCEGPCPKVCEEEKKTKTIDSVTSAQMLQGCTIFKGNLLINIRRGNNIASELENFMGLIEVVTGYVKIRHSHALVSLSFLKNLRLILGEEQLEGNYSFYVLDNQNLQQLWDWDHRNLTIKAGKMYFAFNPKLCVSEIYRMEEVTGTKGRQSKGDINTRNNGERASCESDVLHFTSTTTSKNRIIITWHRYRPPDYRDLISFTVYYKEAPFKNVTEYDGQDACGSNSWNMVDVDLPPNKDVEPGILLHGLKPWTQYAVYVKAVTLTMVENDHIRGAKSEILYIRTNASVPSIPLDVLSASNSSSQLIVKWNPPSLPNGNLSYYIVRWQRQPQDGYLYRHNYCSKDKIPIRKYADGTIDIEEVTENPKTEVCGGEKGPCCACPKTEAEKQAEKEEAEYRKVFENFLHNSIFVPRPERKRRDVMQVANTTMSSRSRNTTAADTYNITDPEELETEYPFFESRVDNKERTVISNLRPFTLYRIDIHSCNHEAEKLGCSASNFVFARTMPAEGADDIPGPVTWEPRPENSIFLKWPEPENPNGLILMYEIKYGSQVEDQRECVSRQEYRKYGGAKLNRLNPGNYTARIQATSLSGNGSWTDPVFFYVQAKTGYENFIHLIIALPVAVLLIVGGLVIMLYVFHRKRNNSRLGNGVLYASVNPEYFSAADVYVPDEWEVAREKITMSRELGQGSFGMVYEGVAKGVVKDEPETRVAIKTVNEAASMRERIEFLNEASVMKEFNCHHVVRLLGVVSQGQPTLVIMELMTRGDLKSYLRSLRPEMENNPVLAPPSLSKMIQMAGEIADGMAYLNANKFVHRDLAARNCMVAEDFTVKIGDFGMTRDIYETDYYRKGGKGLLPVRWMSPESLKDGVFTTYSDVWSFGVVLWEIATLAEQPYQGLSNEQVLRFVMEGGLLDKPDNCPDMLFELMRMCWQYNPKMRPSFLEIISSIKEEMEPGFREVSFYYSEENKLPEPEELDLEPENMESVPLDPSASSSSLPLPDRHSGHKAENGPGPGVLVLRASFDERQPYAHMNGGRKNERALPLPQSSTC

KIT (A829P) = KIT (A829P) (Homo sapiens, UniProt P10721, A829P); test: Kinase profiling; assay type: binding; conditions: read-out: % Ctrl @ 1000 nM
LATS1 = LATS1 (Homo sapiens, UniProt O95835); test: Kinase profiling; assay type: binding; conditions: read-out: % Ctrl @ 1000 nM
MAP4K5 = MAP4K5 (Homo sapiens, UniProt Q9Y4K4); test: Kinase profiling; assay type: binding; conditions: read-out: % Ctrl @ 1000 nM
MAPKAPK2 = MAPKAPK2 (Homo sapiens, UniProt P49137); test: Kinase profiling; assay type: binding; conditions: read-out: % Ctrl @ 1000 nM
Sequence of MAPKAPK2 (P49137 whole entry): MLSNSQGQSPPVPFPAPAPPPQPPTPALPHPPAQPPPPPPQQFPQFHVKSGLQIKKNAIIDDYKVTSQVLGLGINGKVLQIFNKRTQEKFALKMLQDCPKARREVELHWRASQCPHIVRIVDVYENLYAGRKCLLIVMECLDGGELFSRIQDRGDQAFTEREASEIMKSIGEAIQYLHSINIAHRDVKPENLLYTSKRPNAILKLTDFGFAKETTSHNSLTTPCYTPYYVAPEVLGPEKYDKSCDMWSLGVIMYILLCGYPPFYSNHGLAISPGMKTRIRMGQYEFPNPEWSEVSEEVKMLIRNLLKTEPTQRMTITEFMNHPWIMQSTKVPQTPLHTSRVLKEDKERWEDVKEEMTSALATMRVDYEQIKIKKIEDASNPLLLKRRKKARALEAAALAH

MARK2 = MARK2 (Homo sapiens, UniProt Q7KZI7); test: Kinase profiling; assay type: binding; conditions: read-out: % Ctrl @ 1000 nM
MEK6 = target: T1, MEK6 (Homo sapiens, UniProt P52564); test: Kinase profiling; assay type: binding; conditions: read-out: % Ctrl @ 1000 nM
T1 construct: T7 phage fusion (stated for most kinases of the panel only); made in house; host or cells: T7 phage in E. coli (BL21-derived) or HEK-293 cells

MRCKA = target: T2, MRCKA (Homo sapiens, UniProt Q5VT25); test: Kinase profiling; assay type: binding; conditions: read-out: % Ctrl @ 1000 nM
T2 construct: T7 phage fusion (stated for most kinases of the panel only); made in house; host or cells: T7 phage in E. coli (BL21-derived) or HEK-293 cells

MST4 = target: T3, MST4 (Homo sapiens, UniProt Q9P289); test: Kinase profiling; assay type: binding; conditions: read-out: % Ctrl @ 1000 nM
T3 construct: T7 phage fusion (said for most assays); made in house

NEK11 = target: T4, NEK11 (Homo sapiens, UniProt Q8NG66); test: Kinase profiling; assay type: binding; conditions: read-out: % Ctrl @ 1000 nM
T4 construct: T7 phage fusion (said for most assays); made in house

p38-delta = p38-delta (Homo sapiens, UniProt O15264); test: Kinase profiling; assay type: binding; conditions: read-out: % Ctrl @ 1000 nM
PCTK3 = PCTK3 (Homo sapiens, UniProt Q07002); test: Kinase profiling; assay type: binding; conditions: read-out: % Ctrl @ 1000 nM
PDGFRA = PDGFRA (Homo sapiens, UniProt P16234); test: Kinase profiling; assay type: binding; conditions: read-out: % Ctrl @ 1000 nM
Sequence of PDGFRA (P16234 24-1089): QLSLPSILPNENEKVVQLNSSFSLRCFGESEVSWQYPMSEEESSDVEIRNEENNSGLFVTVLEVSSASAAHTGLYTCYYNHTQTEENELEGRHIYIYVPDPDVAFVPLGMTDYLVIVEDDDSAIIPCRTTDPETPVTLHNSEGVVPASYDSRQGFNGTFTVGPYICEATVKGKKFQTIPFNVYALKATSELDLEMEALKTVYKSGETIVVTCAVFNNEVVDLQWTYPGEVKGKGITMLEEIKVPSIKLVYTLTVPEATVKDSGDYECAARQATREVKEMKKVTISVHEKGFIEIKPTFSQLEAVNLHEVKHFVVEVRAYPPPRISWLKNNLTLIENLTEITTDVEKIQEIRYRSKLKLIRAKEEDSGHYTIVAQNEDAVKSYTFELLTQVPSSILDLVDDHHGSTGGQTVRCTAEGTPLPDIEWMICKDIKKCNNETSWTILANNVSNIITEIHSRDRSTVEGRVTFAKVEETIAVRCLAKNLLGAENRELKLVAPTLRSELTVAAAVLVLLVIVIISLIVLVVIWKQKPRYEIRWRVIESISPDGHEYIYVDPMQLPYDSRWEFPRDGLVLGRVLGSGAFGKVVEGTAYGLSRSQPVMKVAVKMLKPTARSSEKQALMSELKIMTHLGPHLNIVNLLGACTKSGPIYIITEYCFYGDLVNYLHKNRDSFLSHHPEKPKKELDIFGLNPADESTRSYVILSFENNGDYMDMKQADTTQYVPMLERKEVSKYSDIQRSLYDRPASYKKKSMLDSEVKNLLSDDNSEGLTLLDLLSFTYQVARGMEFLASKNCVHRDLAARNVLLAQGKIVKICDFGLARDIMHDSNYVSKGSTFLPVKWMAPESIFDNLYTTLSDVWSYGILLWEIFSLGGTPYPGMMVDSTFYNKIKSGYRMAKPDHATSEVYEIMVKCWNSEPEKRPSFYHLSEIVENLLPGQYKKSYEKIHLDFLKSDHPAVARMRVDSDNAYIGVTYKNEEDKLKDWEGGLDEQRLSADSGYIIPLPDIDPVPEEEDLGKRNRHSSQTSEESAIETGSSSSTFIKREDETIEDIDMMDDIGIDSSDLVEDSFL

PIK3CA (E542K) = PIK3CA (E542K) (Homo sapiens, UniProt P42336, E542K); test: Kinase profiling; assay type: binding; conditions: read-out: % Ctrl @ 1000 nM
PIK3CA (H1047L) = PIK3CA (H1047L) (Homo sapiens, UniProt P42336, H1047L); test: Kinase profiling; assay type: binding; conditions: read-out: % Ctrl @ 1000 nM
PIM2 = PIM2 (Homo sapiens, UniProt Q9P1W9); test: Kinase profiling; assay type: binding; conditions: read-out: % Ctrl @ 1000 nM
PRKCQ = PRKCQ (Homo sapiens, UniProt Q04759); test: Kinase profiling; assay type: binding; conditions: read-out: % Ctrl @ 1000 nM
Sequence of PRKCQ (Q04759 whole entry): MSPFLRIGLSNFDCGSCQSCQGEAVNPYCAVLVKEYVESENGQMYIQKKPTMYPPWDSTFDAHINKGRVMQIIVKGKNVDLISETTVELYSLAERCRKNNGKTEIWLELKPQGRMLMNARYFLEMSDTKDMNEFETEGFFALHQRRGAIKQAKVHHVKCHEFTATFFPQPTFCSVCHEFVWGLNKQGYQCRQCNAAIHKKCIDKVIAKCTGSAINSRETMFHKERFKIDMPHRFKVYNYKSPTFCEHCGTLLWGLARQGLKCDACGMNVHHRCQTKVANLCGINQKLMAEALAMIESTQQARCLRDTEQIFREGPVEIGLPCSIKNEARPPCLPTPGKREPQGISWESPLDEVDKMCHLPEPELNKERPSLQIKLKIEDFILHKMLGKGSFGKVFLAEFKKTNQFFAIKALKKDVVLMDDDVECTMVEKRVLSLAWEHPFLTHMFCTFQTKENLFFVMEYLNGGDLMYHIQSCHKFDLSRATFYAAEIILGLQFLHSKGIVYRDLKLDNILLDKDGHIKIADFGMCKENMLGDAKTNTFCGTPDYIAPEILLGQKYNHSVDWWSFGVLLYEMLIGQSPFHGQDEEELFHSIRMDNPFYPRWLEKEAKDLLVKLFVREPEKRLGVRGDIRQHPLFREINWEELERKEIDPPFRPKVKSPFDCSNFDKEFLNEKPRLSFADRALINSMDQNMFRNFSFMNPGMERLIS

SGK3 = SGK3 (Homo sapiens, UniProt Q96BR1); test: Kinase profiling; assay type: binding; conditions: read-out: % Ctrl @ 1000 nM
SRMS = SRMS (Homo sapiens, UniProt Q9H3Y6); test: Kinase profiling; assay type: binding; conditions: read-out: % Ctrl @ 1000 nM
TSSK3 = TSSK3 (Homo sapiens, UniProt Q96PN8); test: Kinase profiling; assay type: binding; conditions: read-out: % Ctrl @ 1000 nM
RAW264.7 cells = test: Proliferation of RAW264.7 cells (CTG assay); assay type: cell-based; conditions: RAW264.7 (CSF-1 independent, negative control), 3 days
Protocol: Two syngeneic cell lines M-NFS-60 and RAW264.7 and engineered BaF3 hCSFIR cell line were starved and then tested with CBT-102 and other test articles for 3 days in the temperature of 37° C., 5% CO2 and 95% humidity. The cell viability was then detected using CTG assay. The software of GraphPad Prism was used to calculate IC50.
CSF-1 dependent mouse myeloid M-NFS-60 cells were employed as target cells while a CSF-1 independent cell line Raw 264.7 was used as a negative control. In addition to CBT-102, the study also included 3 CSF-1R inhibitors: GW2580, BLZ945 and Pexidartinib.

SMILES: Cc1cc(Oc2cc(NC(=O)C3CC3)ncn2)ccc1NC(=O)Nc1ccc(Cl)c(C(F)(F)F)c1 [CBT-102]
- remaining activity at 1 µM (ADCK4): 88%
- remaining activity at 1 µM (BRAF): 6.1%
- remaining activity at 1 µM (CAMK2G): 100%
- remaining activity at 1 µM (CDK9): 46%
- remaining activity at 1 µM (CDKL5): 97%
- remaining activity at 1 µM (CSNK1G3): 96%
- remaining activity at 1 µM (DCAMKL1): 100%
- remaining activity at 1 µM (DYRK1B): 100%
- remaining activity at 1 µM (EGFR (S752-I759del)): 91%
- remaining activity at 1 µM (EPHA8): 9.1%
- remaining activity at 1 µM (ERK3): 100%
- % Ctrl @ 1000 nM (FLT3 (ITD)): 18%
- % Ctrl @ 1000 nM (FLT3 (ITD, F691L)): 86%
- remaining activity at 1 µM (FLT3 (K663Q)): 3.9%
- remaining activity at 1 µM (IGF1R): 95%
- remaining activity at 1 µM (KIT (A829P)): 16%
- remaining activity at 1 µM (LATS1): 80%
- remaining activity at 1 µM (MAP4K5): 2.2%
- remaining activity at 1 µM (MAPKAPK2): 100%
- remaining activity at 1 µM (MARK2): 76%
- remaining activity at 1 µM (MEK6): 96%
- remaining activity at 1 µM (MRCKA): 91%
- remaining activity at 1 µM (MST4): 100%
- remaining activity at 1 µM (NEK11): 100%
- remaining activity at 1 µM (p38-delta): 8.6%
- remaining activity at 1 µM (PCTK3): 84%
- remaining activity at 1 µM (PDGFRA): 2.1%
- remaining activity at 1 µM (PIK3CA (E542K)): 96%
- remaining activity at 1 µM (PIK3CA (H1047L)): 100%
- remaining activity at 1 µM (PIM2): 100%
- remaining activity at 1 µM (PRKCQ): 95%
- remaining activity at 1 µM (SGK3): 82%
- remaining activity at 1 µM (SRMS): 99%
- remaining activity at 1 µM (TSSK3): 100%
- IC50 (RAW264.7 cells; Mus musculus, 72 h): 22.9 µM
- Max inh. (RAW264.7 cells): 95.44%
